Results published in the NIST ThermoML archive (doi:10.1021/je7002836).

Assays:
[1] = molar heat capacity at constant pressure; xn = mol fraction of the nth substance listed; details: 101 kPa, Liquid
[2] = xn = mol fraction of the nth substance listed; details: 101 kPa, Liquid
[3] = molar heat capacity at constant pressure; details: 101 kPa, Liquid
[4] = 101 kPa, Liquid

CCO [ethanol] + CCCC[n+]1cccc(C)c1.F[B-](F)(F)F
x2 = 0
Details	mass density, [2] [kg/m3]	molar heat capacity at constant pressure, [1] [J/K/mol]
293.15 K	789.6	111.3
298.15 K	785.3	113.3
303.15 K	781	115.3
308.15 K	776.7	117.5
313.15 K	772.3	119.7
318.15 K	767.8	122.1

O [water] + CCCC[n+]1cccc(C)c1.F[B-](F)(F)F
x2 = 0
Details	mass density, 308.15 K [kg/m3]	molar heat capacity at constant pressure, 293.15 K [J/K/mol]	molar heat capacity at constant pressure, 298.15 K [J/K/mol]	molar heat capacity at constant pressure, 303.15 K [J/K/mol]	molar heat capacity at constant pressure, 308.15 K [J/K/mol]	molar heat capacity at constant pressure, 313.15 K [J/K/mol]	molar heat capacity at constant pressure, 318.15 K [J/K/mol]
[1]	–	75.4	75.3	75.3	75.2	75.2	75.3
[2]	994.1	–	–	–	–	–	–

CCO [ethanol]
Details	mass density, [4] [kg/m3]	molar heat capacity at constant pressure, [3] [J/K/mol]
293.15 K	789.6	111.3
298.15 K	785.3	113.3
303.15 K	781	115.3
308.15 K	776.7	117.5
313.15 K	772.3	119.7
318.15 K	767.8	122.1

C[N+](=O)[O-] [nitromethane]
Details	mass density, [4] [kg/m3]	molar heat capacity at constant pressure, [3] [J/K/mol]
293.15 K	1140.2	106.6
298.15 K	1133.4	106.9
303.15 K	1126.6	107.3
308.15 K	1119.7	107.7
313.15 K	1112.9	108.2
318.15 K	1106	108.6

CCCC[n+]1cccc(C)c1.F[B-](F)(F)F [1-butyl-3-methylpyridinium tetrafluoroborate]
Details	mass density, [4] [kg/m3]	molar heat capacity at constant pressure, [3] [J/K/mol]
293.15 K	1188.6	385.8
298.15 K	1185.2	387.7
303.15 K	1181.7	390.1
308.15 K	1178.3	392.8
313.15 K	1174.9	395.9
318.15 K	1171.6	399.3

CCCC[n+]1cccc(C)c1.F[B-](F)(F)F [1-butyl-3-methylpyridinium tetrafluoroborate] + C[N+](=O)[O-]
x1 = 1
Details	mass density, [2] [kg/m3]	molar heat capacity at constant pressure, [1] [J/K/mol]
293.15 K	1188.6	385.8
298.15 K	1185.2	387.7
303.15 K	1181.7	390.1
308.15 K	1178.3	392.8
313.15 K	1174.9	395.9
318.15 K	1171.6	399.3
